System: male C57BL/6J mice
Experiment: Acute single dose 120-min time-course experiment, in vivo glucose reduction
Set-up: unit not given here
Settings: n = 8, Mean ± SEM
Experimental: Acute single dose 120-min time-course experiments were carried out in male C57BL/6J or db/db mice, age 8-12 weeks, bred in-house. The animals were housed in groups of 6 animals per cage, for a week, in order to habituate them to vivarium conditions (25+4° C., 60-65% relative humidity, 12:12 h light: dark cycle, with lights on at 7.30 am). All the animal experiments were carried out according to the internationally valid guidelines following approval by the ‘Zydus Research Center animal ethical committee’.
[…] On the day of experiment, food was withdrawn from all the cages, water was given ad-libitum and were kept for overnight fasting. Vehicle (normal saline)/test/standard compounds were administered intraperitoneally (i.p.) or orally, on a body weight basis. Soon after the 0 min. blood collection from each animal, the subsequent blood collections were done at 30, 60 and 120 or upto 240 min., via retro-orbital route, under light ether anesthesia (Chen, D., et al., Diabetes Obesity Metabolism, 2005, 7, 307. Kim, J. G. et al., Diabetes, 2003, 52, 751).
The blood samples were centrifuged and the separated serum was immediately subjected for the glucose estimation. The serum for insulin estimation was stored at −70° C. until used for the insulin estimation. The glucose estimation was carried out with DPEC-GOD/POD method (Ranbaxy Fine Chemicals Limited, Diagnostic division, India), using Spectramax-190, in 96-microwell plate reader (Molecular devices Corporation, Sunnyvale, Calif.). […] The AUC and BCAUC obtained from graphs were analyzed for one way ANOVA, followed by Dunnett's post test, using Graph Pad prism software. Furthermore, the insulin estimation was carried out using rat/mouse insulin ELISA kit (Linco research, Missouri USA).

Compound	blood glucose level (in vivo glucose reduction) (2 μM/kg, oral, 0 min)	blood glucose level (in vivo glucose reduction) (2 μM/kg, oral, 30 min)	blood glucose level (in vivo glucose reduction) (2 μM/kg, oral, 60 min)	blood glucose level (in vivo glucose reduction) (2 μM/kg, oral, 120 min)	also measured
CCc1cc(OC)ccc1-c1ccc(CC(NC(=O)[C@H](CC(=O)O)NC(=O)[C@H](CO)NC(=O)[C@@H](NC(=O)C(C)(Cc2c(F)cccc2F)NC(=O)[C@@H](NC(=O)CNC(=O)[C@H](CCC(N)=O)NC(=O)[C@H](CO)NC(=O)[C@H](Cc2c[nH]cn2)NC(=O)[C@@H](N)C(C)C)[C@@H](C)O)[C@@H](C)O)C(=O)NC(C)(CCCc2ccccc2)C(N)=O)cc1 (single isomer, unassigned) [Seq. ID. No. 99, VHSQGT-(αMe-2,6-diF-Phe)-TSD-Bip(OMe)-(αMe-APPA)]	184 ± 2.5	118 ± 3.6	113 ± 4.2	110 ± 2.4	–
CCc1cc(OC)ccc1-c1ccc(CC(NC(=O)[C@H](CC(=O)O)NC(=O)[C@H](CO)NC(=O)[C@@H](NC(=O)C(C)(Cc2c(F)cccc2F)NC(=O)[C@@H](NC(=O)CNC(=O)[C@H](CCC(=O)O)NC(=O)C(C)(C)NC(=O)[C@H](Cc2c[nH]cn2)NC(=O)[C@@H](N)C(C)C)[C@@H](C)O)[C@@H](C)O)C(=O)NC(C)(CCCc2ccccc2)C(N)=O)cc1 (single isomer, unassigned) [Seq. ID. No. 105, VH-Aib-EGT-(αMe-2,6-diFPhe)-TSD-Bip(OMe)-(αMe-APPA)]	185 ± 2.1	115 ± 2.8	112 ± 4.9	111 ± 2.2	–
CCc1cc(OC)ccc1-c1ccc(CC(NC(=O)C(C)(CC(=O)O)NC(=O)C(C)(CO)NC(=O)[C@@H](NC(=O)C(C)(Cc2ccccc2F)NC(=O)[C@@H](NC(=O)CNC(=O)[C@H](CCC(N)=O)NC(=O)C2(C)CCCN2C(=O)[C@H](Cc2c[nH]cn2)NC(=O)[C@@H](N)C(C)C)[C@@H](C)O)[C@@H](C)O)C(=O)NC(C)(CCCc2ccccc2)C(N)=O)cc1 (single isomer, unassigned) [Seq. ID. No. 118, VH-(αMe-Pro)-QGT-(αMe-2FPhe)-T-(αMe-Ser)-(αMe-Asp)-Bip(OMe)-(αMe-APPA)]	184 ± 2.5	115 ± 1.6	113 ± 3.2	110 ± 2.4	–
CCc1cc(OC)ccc1-c1ccc(CC(NC(=O)C(C)(CC(=O)O)NC(=O)C(C)(CO)NC(=O)[C@@H](NC(=O)C(C)(Cc2c(F)cccc2F)NC(=O)[C@@H](NC(=O)CNC(=O)[C@H](CCC(=O)O)NC(=O)C(C)(C)NC(=O)[C@H](Cc2c[nH]cn2)NC(=O)[C@@H](N)C(C)C)[C@@H](C)O)[C@@H](C)O)C(=O)NC(C)(CCCc2ccccc2)C(N)=O)cc1 (single isomer, unassigned) [Seq. ID. No. 129, VH-Aib-EGT-(αMe-2,6-diFPhe)-T-(αMe-Ser)-(αMe-Asp)-Bip(OMe)-(αMe-APPA)]	183 ± 2.4	116 ± 3.1	112 ± 4.8	110 ± 2.5	–
CCc1cc(OC)ccc1-c1ccc(CC(C)(NC(=O)[C@H](CC(=O)O)NC(=O)[C@H](CO)NC(=O)[C@@H](NC(=O)C(C)(Cc2ccccc2F)NC(=O)[C@@H](NC(=O)CNC(=O)[C@H](CCC(=O)O)NC(=O)[C@H](CO)NC(=O)[C@H](Cc2c[nH]cn2)NC(=O)[C@@H](N)C(C)C)[C@@H](C)O)[C@@H](C)O)C(=O)NC(C)(CCCc2ccccc2)C(N)=O)cc1 (single isomer, unassigned) [Seq. ID. No. 145, VHSEGT-(αMe-2FPhe)-TSD-(αMe-Bip(OMe))-(αMe-APPA)]	184 ± 2.2	118 ± 3.3	112 ± 4.4	110 ± 2.9	–
CCc1cc(OC)ccc1-c1ccc(CC(C)(NC(=O)[C@H](CC(=O)O)NC(=O)C(C)(CO)NC(=O)[C@@H](NC(=O)C(C)(Cc2ccccc2F)NC(=O)[C@@H](NC(=O)CNC(=O)[C@H](CCC(N)=O)NC(=O)[C@H](C)NC(=O)[C@H](Cc2c[nH]cn2)NC(=O)[C@@H](N)C(C)C)[C@@H](C)O)[C@@H](C)O)C(=O)NC(C)(CCCc2ccccc2)C(N)=O)cc1 (single isomer, unassigned) [Seq. ID. No. 166, VHAQGT-(αMe-2FPhe)-T-(αMe-Ser)-D-(αMe-Bip(OMe))-(αMe-APPA)]	–	–	–	–	blood glucose level (in vivo glucose reduction) (0.5 μM/kg, oral, 0 min): 184 ± 2.5; blood glucose level (in vivo glucose reduction) (0.5 μM/kg, oral, 30 min): 115 ± 3.6; blood glucose level (in vivo glucose reduction) (0.5 μM/kg, oral, 60 min): 113 ± 4.2; blood glucose level (in vivo glucose reduction) (0.5 μM/kg, oral, 120 min): 110 ± 2.4
CCc1cc(OC)ccc1-c1ccc(CC(C)(NC(=O)[C@H](CC(=O)O)NC(=O)C(C)(CO)NC(=O)[C@@H](NC(=O)C(C)(Cc2c(F)cccc2F)NC(=O)[C@@H](NC(=O)CNC(=O)[C@H](CCC(=O)O)NC(=O)[C@H](CO)NC(=O)[C@H](Cc2c[nH]cn2)NC(=O)[C@@H](N)C(C)C)[C@@H](C)O)[C@@H](C)O)C(=O)NC(C)(CCCc2ccccc2)C(N)=O)cc1 (single isomer, unassigned) [Seq. ID. No. 177, VHSEGT-(αMe-2,6-diFPhe)-T-(αMe-Ser)-D-(αMe-Bip(OMe))-(αMe-APPA)]	183 ± 2.4	116 ± 3.1	112 ± 4.8	110 ± 2.5	–
CCc1cc(OC)ccc1-c1ccc(CC(C)(NC(=O)[C@H](CC(=O)O)NC(=O)C(C)(CO)NC(=O)[C@@H](NC(=O)C(C)(Cc2c(F)cccc2F)NC(=O)[C@@H](NC(=O)CNC(=O)[C@H](CCC(=O)O)NC(=O)C(C)(C)NC(=O)[C@H](Cc2c[nH]cn2)NC(=O)[C@@H](N)C(C)C)[C@@H](C)O)[C@@H](C)O)C(=O)NC(C)(CCCc2ccccc2)C(N)=O)cc1 (single isomer, unassigned) [Seq. ID. No. 179, VH-Aib-EGT-(αMe-2,6-diFPhe)-T-(αMe-Ser)-D-(αMe-Bip(OMe))-(αMe-APPA)]	–	–	–	–	blood glucose level (in vivo glucose reduction) (20 nM/kg, i.p, 0 min): 182 ± 2.1; blood glucose level (in vivo glucose reduction) (20 nM/kg, i.p, 30 min): 121 ± 2.9; blood glucose level (in vivo glucose reduction) (20 nM/kg, i.p, 60 min): 130 ± 3.1; blood glucose level (in vivo glucose reduction) (20 nM/kg, i.p, 120 min): 138 ± 2.4
CCc1cc(OC)ccc1-c1ccc(CC(C)(NC(=O)C(C)(CC(=O)O)NC(=O)[C@H](CO)NC(=O)[C@@H](NC(=O)[C@H](Cc2ccccc2)NC(=O)[C@@H](NC(=O)CNC(=O)[C@H](CCC(=O)O)NC(=O)C(C)(C)NC(=O)[C@H](Cc2c[nH]cn2)NC(=O)[C@@H](N)C(C)C)[C@@H](C)O)[C@@H](C)O)C(=O)NC(C)(CCCc2ccccc2)C(N)=O)cc1 (single isomer, unassigned) [Seq. ID. No. 187, VH-Aib-EGTFTS-(αMe-Asp)-(αMe-Bip(OMe))-(αMe-APPA)]	183 ± 2.4	119 ± 3.1	112 ± 4.8	110 ± 2.5	–
